Measured values reported in ChEMBL document CHEMBL1201862, “PubChem BioAssay data set” (2004).
The source made the active and inactive calls.

Assays:
Fatty acid synthase [1] = target: T1, Fatty acid synthase (Homo sapiens, UniProt P49327); assay: inhibition of human FAS-TE enzyme activity – biochemical, endpoint fluorescence intensity, uHTS hits, dose response (AID 624327); format: functional;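 note: fluorescence from hydrolysis of an O-methyl fluorescein acyl ester substrate by the enzyme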
Fatty acid synthase [2] = target: T1, Fatty acid synthase; assay: inhibition of human FAS-TE enzyme activity – biochemical, kinetic fluorescence intensity, dose response (AID 624326); format: functional;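 note: rate of fluorescence rise from hydrolysis of a fluorogenic O-methyl fluorescein ester substrate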
[3] = viability of PTEN-deleted HCT116 cells – cell-based, HCT116 PTEN knockout, dose response (AID 1047); format: functional;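 note: HCT116 colon tumor cells with PTEN knocked out; cells exposed to compound for 60 hours before readout; potency for loss of cell viability measured by luminescence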
[4] = viability of HCT116 lacking mutant beta-catenin – cell-based, human colon tumor, dose response (AID 1045); format: functional;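 note: HCT116 colon tumor cells with beta catenin knocked out; cells exposed to compound for 60 hours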
Genome polyprotein = Genome polyprotein (dengue virus type 2, UniProt P29990); assay: flavivirus cap methylation enzyme inhibition – biochemical, confirmation dose response, primary screen (AID 588689); format: functional
[5] = target: T2, Ubiquitin-conjugating enzyme E2 N (Homo sapiens, UniProt P61088); format: functional;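 note: Dose-response confirmation in a TR-FRET assay detecting UBC13-driven polyubiquitin chain formation, inhibition measured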
T2 sequence (P61088 whole entry): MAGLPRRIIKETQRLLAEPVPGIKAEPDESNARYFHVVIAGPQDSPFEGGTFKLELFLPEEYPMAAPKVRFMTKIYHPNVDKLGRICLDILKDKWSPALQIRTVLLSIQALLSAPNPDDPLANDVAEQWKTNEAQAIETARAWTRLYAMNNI

[6] = P. falciparum Dd2 growth inhibitors, dose response, SYBR Green, cherry-picked samples (AID 1159567); format: functional, cell-based
[7] = HIV-1 AD8 envelope cell-cell fusion blockers – cherry-pick, dose response (AID 652062); format: functional, cell-based;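 note: luciferase signal from cell-cell fusion driven by HIV-1 clade B AD8 Env; potency is for inhibitors of fusion seen as a drop in luminescence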

T1 sequence (P49327 whole entry): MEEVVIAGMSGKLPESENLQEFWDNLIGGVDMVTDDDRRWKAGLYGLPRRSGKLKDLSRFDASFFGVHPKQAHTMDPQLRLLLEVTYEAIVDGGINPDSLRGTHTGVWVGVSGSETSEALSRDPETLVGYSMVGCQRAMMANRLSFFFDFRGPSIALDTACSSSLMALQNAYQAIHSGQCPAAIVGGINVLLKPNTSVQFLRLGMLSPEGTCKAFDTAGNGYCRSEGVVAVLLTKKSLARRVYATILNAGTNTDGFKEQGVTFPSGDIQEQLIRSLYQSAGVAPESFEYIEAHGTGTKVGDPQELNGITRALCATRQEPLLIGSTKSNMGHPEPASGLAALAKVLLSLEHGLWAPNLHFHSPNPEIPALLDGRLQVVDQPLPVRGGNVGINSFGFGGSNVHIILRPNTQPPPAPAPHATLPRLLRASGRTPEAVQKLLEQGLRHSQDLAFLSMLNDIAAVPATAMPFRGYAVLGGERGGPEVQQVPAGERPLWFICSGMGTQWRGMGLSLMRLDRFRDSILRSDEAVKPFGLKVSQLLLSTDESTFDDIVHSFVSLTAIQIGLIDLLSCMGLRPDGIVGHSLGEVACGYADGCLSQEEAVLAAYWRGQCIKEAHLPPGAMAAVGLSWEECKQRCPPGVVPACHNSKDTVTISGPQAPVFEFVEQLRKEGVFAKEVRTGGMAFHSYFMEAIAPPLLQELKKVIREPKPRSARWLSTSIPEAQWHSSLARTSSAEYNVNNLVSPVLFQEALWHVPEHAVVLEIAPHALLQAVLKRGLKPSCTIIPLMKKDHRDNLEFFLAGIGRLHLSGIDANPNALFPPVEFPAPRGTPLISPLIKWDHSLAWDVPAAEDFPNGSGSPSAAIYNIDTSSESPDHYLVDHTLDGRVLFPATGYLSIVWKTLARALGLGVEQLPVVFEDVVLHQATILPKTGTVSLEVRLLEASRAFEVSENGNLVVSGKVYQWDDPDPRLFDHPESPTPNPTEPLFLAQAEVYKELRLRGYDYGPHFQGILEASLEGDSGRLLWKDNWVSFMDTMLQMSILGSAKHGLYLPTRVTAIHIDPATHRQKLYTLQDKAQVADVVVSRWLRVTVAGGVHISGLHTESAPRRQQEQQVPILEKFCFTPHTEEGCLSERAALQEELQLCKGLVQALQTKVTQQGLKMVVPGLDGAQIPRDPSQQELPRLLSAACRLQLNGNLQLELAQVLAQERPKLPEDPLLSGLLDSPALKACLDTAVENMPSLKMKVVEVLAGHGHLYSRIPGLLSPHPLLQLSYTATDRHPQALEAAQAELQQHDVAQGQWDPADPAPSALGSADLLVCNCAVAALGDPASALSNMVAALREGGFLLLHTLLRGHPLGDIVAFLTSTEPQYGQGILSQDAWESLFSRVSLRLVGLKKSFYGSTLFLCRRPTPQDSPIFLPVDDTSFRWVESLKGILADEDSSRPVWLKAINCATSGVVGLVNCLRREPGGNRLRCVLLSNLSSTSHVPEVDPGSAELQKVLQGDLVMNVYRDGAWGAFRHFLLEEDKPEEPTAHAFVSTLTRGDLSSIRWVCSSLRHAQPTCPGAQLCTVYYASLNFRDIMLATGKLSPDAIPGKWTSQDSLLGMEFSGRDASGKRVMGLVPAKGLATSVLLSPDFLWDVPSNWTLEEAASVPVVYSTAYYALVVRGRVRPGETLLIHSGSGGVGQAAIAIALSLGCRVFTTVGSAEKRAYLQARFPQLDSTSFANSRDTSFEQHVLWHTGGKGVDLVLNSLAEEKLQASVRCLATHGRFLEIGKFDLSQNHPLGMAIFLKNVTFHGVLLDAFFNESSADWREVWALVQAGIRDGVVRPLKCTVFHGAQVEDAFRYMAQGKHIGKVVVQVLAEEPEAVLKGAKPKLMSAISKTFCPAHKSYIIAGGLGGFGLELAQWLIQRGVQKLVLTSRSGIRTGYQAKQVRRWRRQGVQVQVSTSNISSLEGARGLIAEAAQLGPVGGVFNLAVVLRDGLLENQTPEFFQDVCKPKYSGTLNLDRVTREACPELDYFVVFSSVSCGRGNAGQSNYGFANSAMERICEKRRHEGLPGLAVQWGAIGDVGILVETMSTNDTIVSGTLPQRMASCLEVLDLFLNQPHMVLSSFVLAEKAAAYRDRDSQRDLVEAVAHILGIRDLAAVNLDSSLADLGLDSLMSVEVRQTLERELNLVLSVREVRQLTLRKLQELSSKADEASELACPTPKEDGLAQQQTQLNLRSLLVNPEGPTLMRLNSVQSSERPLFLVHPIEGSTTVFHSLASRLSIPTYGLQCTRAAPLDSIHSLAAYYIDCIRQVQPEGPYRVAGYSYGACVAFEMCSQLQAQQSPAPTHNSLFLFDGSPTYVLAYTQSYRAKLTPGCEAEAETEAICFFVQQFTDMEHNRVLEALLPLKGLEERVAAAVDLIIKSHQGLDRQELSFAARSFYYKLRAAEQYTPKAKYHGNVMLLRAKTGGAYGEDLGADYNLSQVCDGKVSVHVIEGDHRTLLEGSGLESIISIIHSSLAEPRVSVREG
Chain of Genome polyprotein (P29990 2492-3391 limits assumed): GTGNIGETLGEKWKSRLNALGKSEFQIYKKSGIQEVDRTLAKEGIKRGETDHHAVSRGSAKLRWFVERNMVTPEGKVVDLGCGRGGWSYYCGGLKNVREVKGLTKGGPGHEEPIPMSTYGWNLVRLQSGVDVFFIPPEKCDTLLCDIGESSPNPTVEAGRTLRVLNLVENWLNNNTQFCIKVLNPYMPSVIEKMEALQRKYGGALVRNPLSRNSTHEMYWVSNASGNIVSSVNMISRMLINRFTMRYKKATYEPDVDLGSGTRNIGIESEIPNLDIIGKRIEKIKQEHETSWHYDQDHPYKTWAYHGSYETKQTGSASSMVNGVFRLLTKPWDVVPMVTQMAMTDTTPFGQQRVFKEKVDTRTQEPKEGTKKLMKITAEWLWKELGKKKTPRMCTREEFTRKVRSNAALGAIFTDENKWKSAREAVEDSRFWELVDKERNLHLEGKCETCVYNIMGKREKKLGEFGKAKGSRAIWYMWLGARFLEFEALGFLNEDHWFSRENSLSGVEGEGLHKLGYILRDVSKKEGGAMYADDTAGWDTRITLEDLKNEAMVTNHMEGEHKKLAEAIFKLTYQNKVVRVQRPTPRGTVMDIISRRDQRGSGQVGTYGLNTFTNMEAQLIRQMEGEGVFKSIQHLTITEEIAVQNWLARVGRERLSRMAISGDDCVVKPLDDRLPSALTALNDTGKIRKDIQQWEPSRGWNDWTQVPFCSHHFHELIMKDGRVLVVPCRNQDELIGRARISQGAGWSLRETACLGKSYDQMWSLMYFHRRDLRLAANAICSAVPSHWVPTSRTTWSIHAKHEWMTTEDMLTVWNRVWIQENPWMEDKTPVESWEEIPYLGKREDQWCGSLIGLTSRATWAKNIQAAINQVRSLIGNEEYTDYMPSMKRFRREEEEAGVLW

Compound	IC50 (Fatty acid synthase [1])	IC50 (Fatty acid synthase [2])	further results
COc1ccccc1/C=C(\NC(=O)c1ccc(OC)c(OC)c1)C(=O)Nc1cc([N+](=O)[O-])ccc1C	2.16 µM (active)	3.48 µM (active)	EC50 [3]: 43.6 µM (active); EC50 [4]: 44.4 µM (active)
COc1cc(/C=C2/SC(NS(=O)(=O)Cc3ccccc3)=NC2=O)c([N+](=O)[O-])cc1OC			IC50 (Genome polyprotein): 76.1 µM (active)
COC(=O)C1=C(C)N(CC2CC2)C(NCc2cccc(C(F)(F)F)c2)=N[C@H]1c1ccccc1			IC50 [5]: > 20 µM (inactive)
N#C/C(=C\c1cccs1)C(=O)c1ccccc1			IC50 (Genome polyprotein): > 100 µM (active)
CCO[C@H]1OC(C(=O)NCc2ccccc2)=C[C@@H](C2CCCCC2)[C@@H]1CCCO	7.45 µM (active)	11.5 µM (active)	
CC[C@@H](C)[C@@H]1CN([C@@H](CN2CCC[C@H]2CN2C(N)=NC[C@H]2C(C)C)C(C)C)C(=N)N1CCCC1CCCC1			IC50 [5]: > 20 µM (inactive)
CCC[C@@H](CN1CCC[C@H]1CN1C(N)=NC[C@H]1C(C)C)N1C[C@@H]([C@H](C)CC)N(CCCC2CCCC2)C1=N			IC50 [5]: > 20 µM (inactive)
C[C@@H]1CN([C@H](C)CO)C(=O)c2c(c3ccccc3n2C)-c2ccccc2CO[C@H]1CN(C)Cc1ccc(Oc2ccccc2)cc1			AC50 [6]: 3.03 µM (active)
COc1ccc(NC(=O)C2(C)CCN2Cc2ccccc2OC(F)F)cc1OC (configuration not stated)			AC50 [7]: 55.5 µM (active)
COc1ccc2c3c([nH]c2c1)[C@H](CO)N(Cc1cc(F)ccc1F)CC31CCN(C(C)=O)CC1			AC50 [6]: 3.39 µM (active)
COc1ccc2c3c(n(C)c2c1)[C@H](CO)N(C(=O)Nc1cccc(F)c1)CC31CN(C)C1			AC50 [6]: 5.83 µM (active)
CO[C@H]1CN(C)C(=O)c2ccc(NC(=O)c3nc4ccccc4s3)cc2OC[C@H](C)N(Cc2ccncc2)C[C@@H]1C			AC50 [6]: 5.3 µM (active)
CCCNC(=O)N1CC(=O)N2[C@@H](CO)[C@@H](c3ccc(C#Cc4cccc(OC)c4)cc3)[C@@H]2C1			AC50 [6]: 17 µM (active)
COc1ccc2c3c([nH]c2c1)[C@@H](CO)N(Cc1ccccc1F)CC31CN(C(=O)C2CCCC2)C1			AC50 [6]: 6.64 µM (active)

The next lines start with results.

IC50 (Fatty acid synthase [1])	IC50 (Fatty acid synthase [2])	Compound	further results
9.92 µM (active)	12.4 µM (active)	COc1cccc(NC(C)C(=O)Nc2cc([N+](=O)[O-])ccc2Cl)c1 (configuration not stated)	
11.2 µM (active)	4.48 µM (active)	CC(C)(C)c1ccc(OCCC(=O)OCC(=O)N2c3ccccc3NC(=O)C2(C)C)cc1	
10.2 µM (active)	11.6 µM (active)	O=C(/C=C/c1cccc([N+](=O)[O-])c1)NCCSCc1ccc(Cl)cc1	
5.96 µM (active)	6.45 µM (active)	COc1ccccc1C(=O)COC(=O)c1cc([N+](=O)[O-])ccc1N1CCOCC1	
9.17 µM (active)	8.93 µM (active)	COc1ccc(C2=NN(C(=O)CSc3nc(=O)n4ccc(C)cc4n3)C(c3ccc(C)cc3)C2)cc1 (configuration not stated)	
2.57 µM (active)	2.53 µM (active)	Cc1ccc2c(c1)C(c1ccccc1)N(C(=O)c1cccc([N+](=O)[O-])c1)CC(=O)N2 (configuration not stated)	
4.06 µM (active)	4.54 µM (active)	CC(NC(=O)Cn1cc([N+](=O)[O-])cn1)c1ccc(C(C)(C)C)cc1 (configuration not stated)	
